Normalised response data for seven compounds are collected here from the supplement of paper PMC4862054.

Common to all, as to assay: normalised response (% of control), CellTiter-Glo; higher = more viable cells (100 = DMSO, 0 = benzethonium chloride kill control)
Settings in all cases: incubation time: 72 h

One assay concerns HDQ-P1. A digest of the protocol:
(§1)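 After 72 h with compound in 384-well plates, breast cancer cell lines seeded as 20 µl suspension were read for CellTox Green fluorescence at 485/520 nm. CellTiter-Glo luminescence was then read after 10 min at room temperature. Compound was present at 5 concentrations in 10-fold steps over a 10,000-fold range set per compound, and plates were normalised to 0.1 % DMSO (100) and a positive kill control (0). Values are normalised signals, each at a single concentration.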

For another assay, the system named is MDA-MB-436. In a few lines:
as §1

In another assay the test system is MFM-223. In a few lines:
as §1

The test system of another assay is BT-474. In a few lines:
as §1

The next assay relates to CAL-85-1. In a few lines:
as §1

The next assay concerns BT-549. In a few lines:
as §1

Another assay deals with CAL-148. A digest of the protocol: as §1
For the next assay, the system named is MDA-MB-453. A digest of the protocol: as §1
The next assay has as its system MDA-MB-231. In a few lines:
as §1

The test system of the next assay is HCC1599. A digest of the protocol:
as §1

Another assay concerns CAL-120. In a few lines:
as §1

The next assay relates to CAL-51. In a few lines: as §1
Another assay has as its system MDA-MB-468. In a few lines: as §1
For the next assay, the system named is MCF-10A. In a few lines: as §1
The next assay concerns DU-4475. A digest of the protocol: as §1
The subject of another assay is HCC1937. In a few lines: as §1
The subject of the next assay is SK-BR-3. In a few lines:
as §1

The test system of a further assay is Hs578T. In a few lines: as §1
The test system of a further assay is HCC1143. In a few lines: as §1

For `CC(=O)c1c(C)c2cnc(Nc3ccc(N4CCNCC4)cn3)nc2n(C2CCCC2)c1=O` [Palbociclib] (1 nM), the normalised response in the assay with HDQ-P1 was 90.1%; in the assay with MDA-MB-436, 101%; in the assay with MFM-223, 90.3%; with BT-474 it was 89.6%; with CAL-85-1 it was 97.8%; in the assay on BT-549, 100%. Also, the normalised response with CAL-148 turned out to be 88.4%; in the assay on MDA-MB-453, 99.2%; in the assay on MDA-MB-231, 91.6%; in the assay with HCC1599 it was 96.1%; in the assay with CAL-120, 95%; in the assay with CAL-51 it was 118%. In addition, the normalised response with MDA-MB-468 was determined as 91.9%; in the assay with MCF-10A, 89.3%; with DU-4475 it was 97.8%; in the assay on HCC1937 it was 101%; in the assay on SK-BR-3 it was 86%; with Hs578T it was 95.7%. Also, the normalised response with HCC1143 turned out to be 88%.
For the compound `CC(=O)c1c(C)c2cnc(Nc3ccc(N4CCNCC4)cn3)nc2n(C2CCCC2)c1=O` [Palbociclib] (10 nM), the normalised response in the assay with HDQ-P1 worked out at 97.9%; in the assay with MDA-MB-436, 95.4%; in the assay on MFM-223 it was 91.2%; in the assay on BT-474 it was 97.2%; in the assay with CAL-85-1, 92%; with BT-549, 100%. Besides, the normalised response in the assay on CAL-148 was 87%; in the assay with MDA-MB-453 it was 93.6%; in the assay on MDA-MB-231, 92.1%; with HCC1599, 107%; with CAL-120, 95.2%; with CAL-51, 115%. In addition, the normalised response was found to be 92.4% in the assay with MDA-MB-468; 97.3% in the assay on MCF-10A; 97.2% in the assay on DU-4475; 101% in the assay with HCC1937; 89.5% with SK-BR-3; 100% with Hs578T. The same compound displayed a normalised response with HCC1143 of 94.5%.
Regarding `CC[C@@H]1C(=O)OC[C@@H]1Cc1cncn1C` [Pilocarpine] (40 nM), the normalised response came out at 98.3% in the assay with HDQ-P1; 94% in the assay with MDA-MB-436; 96.1% in the assay on MFM-223; 94.3% with BT-474; 103% with CAL-85-1; 96.1% with BT-549. Further, the normalised response stood at 96.8% in the assay with CAL-148; 106% in the assay on MDA-MB-453; 97.4% with MDA-MB-231; 81% in the assay with HCC1599; 94.2% in the assay on CAL-120; 127% with CAL-51. Moreover, the normalised response in the assay with MDA-MB-468 was found to be 94.7%; in the assay on MCF-10A, 98.1%; in the assay with DU-4475, 102%; in the assay with HCC1937, 97.6%; with SK-BR-3 it was 89.9%; in the assay on Hs578T it was 98.1%. The compound further came in with a normalised response in the assay with HCC1143 of 103%.
As for `COc1cc(F)c(F)c(Nc2ccc(I)cc2F)c1NS(=O)(=O)C1(C[C@H](O)CO)CC1` [Refametinib] (1 nM), the normalised response with HDQ-P1 came out at 92.8%; in the assay on MDA-MB-436 it was 91.6%; in the assay on MFM-223 it was 94.4%; in the assay with BT-474 it was 91.2%; with CAL-85-1 it was 97%; in the assay with BT-549, 98.6%. The normalised response is 101% with CAL-148; 87.9% with MDA-MB-453; 100% in the assay on MDA-MB-231; 99.5% with HCC1599; 101% in the assay on CAL-120; 75.2% in the assay on CAL-51. Besides, the normalised response turned out to be 92.7% in the assay on MDA-MB-468; 79.4% in the assay on MCF-10A; 104% in the assay with DU-4475; 93.6% with HCC1937; 91.2% with SK-BR-3; 92.9% in the assay on Hs578T. In the assay on HCC1143, this compound came in with a normalised response of 93.6%.
On to `COc1cc(F)c(F)c(Nc2ccc(I)cc2F)c1NS(=O)(=O)C1(C[C@H](O)CO)CC1` [Refametinib] (10 nM), for which the normalised response in the assay with HDQ-P1 came to 89.2%; with MDA-MB-436 it was 90.7%; with MFM-223, 87.9%; with BT-474, 95.5%; in the assay with CAL-85-1, 90.7%; with BT-549 it was 96.5%. Moreover, the normalised response with CAL-148 is 86.9%; in the assay on MDA-MB-453 it was 101%; in the assay with MDA-MB-231 it was 94.4%; in the assay on HCC1599, 109%; with CAL-120, 99.5%; in the assay with CAL-51, 130%. Moreover, the normalised response came to 87.2% in the assay with MDA-MB-468; 58.5% in the assay with MCF-10A; 92% in the assay on DU-4475; 97.9% with HCC1937; 79.6% in the assay with SK-BR-3; 96.5% in the assay with Hs578T. This compound also yielded a normalised response in the assay with HCC1143 of 95.8%.
Consider `CC(C)(C)c1cnc(CSc2cnc(NC(=O)C3CCNCC3)s2)o1` [SNS-032] (10 nM), for which the normalised response turned out to be 92.1% in the assay with HDQ-P1; 101% in the assay on MDA-MB-436; 97.2% in the assay on MFM-223; 93.4% in the assay on BT-474; 109% with CAL-85-1; 95.1% in the assay on BT-549. Besides, the normalised response was 98.5% in the assay on CAL-148; 99.6% in the assay on MDA-MB-453; 96.5% in the assay on MDA-MB-231; 107% in the assay on HCC1599; 96.6% with CAL-120; 65.3% in the assay on CAL-51. For the same compound, the normalised response in the assay with MDA-MB-468 was 96.7%; in the assay on MCF-10A it was 105%; with DU-4475 it was 99.2%; with HCC1937, 97.8%; in the assay on SK-BR-3, 95.8%; with Hs578T, 102%. The same compound had a normalised response with HCC1143 of 89.7%.
As for `Cn1cnc2c(F)c(Nc3ccc(Br)cc3Cl)c(C(=O)NOCCO)cc21` [Selumetinib] (10 nM), the normalised response was found to be 86.6% in the assay with HDQ-P1; 96.3% in the assay with MDA-MB-436; 90.8% in the assay on MFM-223; 89.8% with BT-474; 107% with CAL-85-1; 99.9% in the assay with BT-549. For the same compound, the normalised response with CAL-148 turned out to be 90.6%; in the assay with MDA-MB-453 it was 96.8%; with MDA-MB-231, 97.2%; with HCC1599, 95%; in the assay with CAL-120, 93%; in the assay with CAL-51, 107%. Moreover, the normalised response was determined as 94.8% with MDA-MB-468; 77.4% with MCF-10A; 95.1% with DU-4475; 97.3% in the assay with HCC1937; 90.6% in the assay with SK-BR-3; 99.4% with Hs578T. The same compound showed a normalised response in the assay on HCC1143 of 91%.
